Laboratory results: ChEMBL document CHEMBL1143058, “Evaluation of a diverse set of potential P1 carboxylic acid bioisosteres in hepatitis C virus NS3 protease inhibitors” (Bioorg Med Chem, 2007)

Experiments:
[1] = Inhibition of HCV NS3 protease in presence of pH 7.0 buffer; parameters: species or system Hepacivirus hominis
[2] = Inhibition of HCV NS3 protease in presence of pH 6.0 buffer; parameters: species or system Hepacivirus hominis
Hepatitis C virus = test: Inhibition of HCV by subgenomic HCV replication assay; type: functional, organism-based, Hepacivirus hominis
[3] = Inhibition of HCV NS3 protease in presence of pH 7.5 HEPES buffer; parameters: species or system Hepacivirus hominis
[4] = Inhibition of HCV NS3 protease in presence of pH 8.0 buffer; parameters: species or system Hepacivirus hominis

| SMILES | Ki [1] [nM] | Ki [2] [nM] | EC50 (Hepatitis C virus) [nM] | Ki [3] [nM] | Ki [4] [nM] |
| --- | --- | --- | --- | --- | --- |
| C=C[C@@H]1C[C@]1(NC(=O)[C@@H]1C[C@@H](Oc2cc(-c3ccccc3)nc3cc(OC)ccc23)CN1C(=O)[C@@H](NC(=O)OC(C)(C)C)C(C)(C)C)C(=O)NNc1ccccc1 | 113 | 28 | > 10000 | 560 | 287 |
| C=C[C@@H]1C[C@]1(NC(=O)[C@@H]1C[C@@H](Oc2cc(-c3ccccc3)nc3cc(OC)ccc23)CN1C(=O)[C@@H](NC(=O)OC(C)(C)C)C(C)(C)C)C(=O)Nc1nccs1 | 294 | 7.7 | > 10000 | 821 | 343 |
| C=C[C@@H]1C[C@]1(NC(=O)[C@@H]1C[C@@H](Oc2cc(-c3ccccc3)nc3cc(OC)ccc23)CN1C(=O)[C@@H](NC(=O)OC(C)(C)C)C(C)(C)C)C(=O)NNC(=O)c1ccccc1 | – | – | > 10000 | 1600 | – |
| C=C[C@@H]1C[C@]1(NC(=O)[C@@H]1C[C@@H](Oc2cc(-c3ccccc3)nc3cc(OC)ccc23)CN1C(=O)[C@@H](NC(=O)OC(C)(C)C)C(C)(C)C)C(=O)NS(=O)(=O)c1ccc(C)cc1 | 0.056 | 0.006 | 6 | 0.22 | 0.39 |
| C=C[C@@H]1C[C@]1(NC(=O)[C@@H]1C[C@@H](Oc2cc(-c3ccccc3)nc3cc(OC)ccc23)CN1C(=O)[C@@H](NC(=O)OC(C)(C)C)C(C)(C)C)C(=O)NC#N | 0.51 | 0.14 | 1200 | 6 | 10.8 |
| C=C[C@@H]1C[C@]1(NC(=O)[C@@H]1C[C@@H](Oc2cc(-c3ccccc3)nc3cc(OC)ccc23)CN1C(=O)[C@@H](NC(=O)OC(C)(C)C)C(C)(C)C)C(=O)NNC(=O)Cc1ccccc1 | – | – | > 10000 | 880 | – |
| C=C[C@@H]1C[C@]1(NC(=O)[C@@H]1C[C@@H](Oc2cc(-c3ccccc3)nc3cc(OC)ccc23)CN1C(=O)[C@@H](NC(=O)OC(C)(C)C)C(C)(C)C)C(=O)NS(=O)(=O)c1ccccc1 | – | – | 6 | 0.34 | – |
| C=C[C@@H]1C[C@]1(NC(=O)[C@@H]1C[C@@H](Oc2cc(-c3ccccc3)nc3cc(OC)ccc23)CN1C(=O)[C@@H](NC(=O)OC(C)(C)C)C(C)(C)C)c1nnn[nH]1 | – | – | 2800 | 214 | – |
| C=C[C@@H]1C[C@]1(NC(=O)[C@@H]1C[C@@H](Oc2cc(-c3ccccc3)nc3cc(OC)ccc23)CN1C(=O)[C@@H](NC(=O)OC(C)(C)C)C(C)(C)C)c1nnc(-c2ccccc2)o1 | – | – | > 10000 | 2200 | – |
| C=C[C@@H]1C[C@]1(NC(=O)[C@@H]1C[C@@H](Oc2cc(-c3ccccc3)nc3cc(OC)ccc23)CN1C(=O)[C@@H](NC(=O)OC(C)(C)C)C(C)(C)C)C(=O)NS(=O)(=O)C1CC1 | – | – | 0.9 | 0.058 | – |
| C=C[C@@H]1C[C@]1(NC(=O)[C@@H]1C[C@@H](Oc2cc(-c3ccccc3)nc3cc(OC)ccc23)CN1C(=O)[C@@H](NC(=O)OC(C)(C)C)C(C)(C)C)C(=O)NO | – | – | 3800 | 425 | – |
| C=C[C@@H]1C[C@]1(NC(=O)[C@@H]1C[C@@H](Oc2cc(-c3ccccc3)nc3cc(OC)ccc23)CN1C(=O)[C@@H](NC(=O)OC(C)(C)C)C(C)(C)C)C(=O)N[S+]([O-])c1ccc(C)cc1 (stereo not given in full) | – | – | 1800 | 9 | – |
| C=C[C@@H]1C[C@]1(NC(=O)[C@@H]1C[C@@H](Oc2cc(-c3ccccc3)nc3cc(OC)ccc23)CN1C(=O)[C@@H](NC(=O)OC(C)(C)C)C(C)(C)C)C(=O)O | 0.68 | 0.12 | 140 | 20 | 8.7 |
| C=C[C@@H]1C[C@]1(NC(=O)[C@@H]1C[C@@H](Oc2cc(-c3ccccc3)nc3cc(OC)ccc23)CN1C(=O)[C@@H](NC(=O)OC(C)(C)C)C(C)(C)C)C(=O)NNCc1ccccc1 | – | – | > 10000 | 1100 | – |
| C=C[C@@H]1C[C@]1(NC(=O)[C@@H]1C[C@@H](Oc2cc(-c3ccccc3)nc3cc(OC)ccc23)CN1C(=O)[C@@H](NC(=O)OC(C)(C)C)C(C)(C)C)C(=O)NCC(F)(F)F | 349 | 71 | > 2000 | 1690 | 734 |
| C=C[C@@H]1C[C@]1(NC(=O)[C@@H]1C[C@@H](Oc2cc(-c3ccccc3)nc3cc(OC)ccc23)CN1C(=O)[C@@H](NC(=O)OC(C)(C)C)C(C)(C)C)C(=O)NNS(=O)(=O)c1ccccc1 | – | – | 1600 | 140 | – |
